Reference: ChEMBL document CHEMBL1201862, “PubChem BioAssay data set” (2004)
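Cultured in 96-well plates, cells were exposed to test compound for 48 hours across five concentrations. GI50 = concentration required for 50% inhibition of growth.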 Activity calls are given as the source filed them. Cut-off read from the data, not from the text of the source: active = GI50 up to about 1.1 µM and inactive = higher.

Assays:
Test in all cases: DTP human tumour cell line panel, 48 h
SR = test system: SR
TK-10 = test system: TK-10
HCC 2998 = test system: HCC 2998
SW-620 = test system: SW-620
HCT-116 = test system: HCT-116
KM12 = test system: KM12
NCI-H522 = test system: NCI-H522
UACC-257 = test system: UACC-257
HL-60 = test system: HL-60
A549 = test system: A549
MOLT-4 = test system: MOLT-4
RPMI-8226 = test system: RPMI-8226
SN12C = test system: SN12C
EKVX = test system: EKVX
HOP-62 = test system: HOP-62
A498 = test system: A498
CCRF-CEM = test system: CCRF-CEM
HOP-92 = test system: HOP-92

Measured: GI50

O=c1ccc2ccccc2c2ccccc12
inactive: SR 1.52 µM | TK-10 14.5 µM | HCC 2998 9.64 µM | SW-620 3.3 µM | HCT-116 3.7 µM | KM12 2.58 µM | NCI-H522 4.37 µM | UACC-257 4.82 µM | HL-60 2.96 µM | A549 13.8 µM | MOLT-4 3.78 µM | RPMI-8226 2.23 µM | SN12C 2.46 µM | EKVX 17.3 µM | HOP-62 3.24 µM | A498 22.7 µM | CCRF-CEM 3.2 µM

Nc1nc(N)c(-c2ccccc2)c(C(=O)Nc2ccc(Cl)c(Cl)c2)n1
inactive: TK-10 > 100 µM | HCC 2998 > 100 µM | HOP-92 > 100 µM | SW-620 > 100 µM | HCT-116 > 100 µM | KM12 > 100 µM | UACC-257 > 100 µM | HL-60 > 100 µM | A549 > 100 µM | MOLT-4 > 100 µM | RPMI-8226 46.8 µM | SN12C > 100 µM | EKVX > 100 µM | HOP-62 > 100 µM | A498 > 100 µM

O=C(CCC(=O)Nc1cccc(Cl)c1)CC(=O)c1ccc(Cl)cc1
inactive: SR > 100 µM | TK-10 > 100 µM | HCC 2998 > 100 µM | HOP-92 > 100 µM | SW-620 > 100 µM | HCT-116 > 100 µM | KM12 > 100 µM | NCI-H522 > 100 µM | UACC-257 > 100 µM | HL-60 > 100 µM | A549 > 100 µM | MOLT-4 > 100 µM | RPMI-8226 > 100 µM | SN12C > 100 µM | HOP-62 > 100 µM

Cc1cccc(/C=N/C23CC4CC(CC(C4)C2)C3)c1
inactive: TK-10 > 100 µM | HCC 2998 > 100 µM | HOP-92 > 100 µM | SW-620 > 100 µM | HCT-116 > 100 µM | KM12 > 100 µM | NCI-H522 > 100 µM | UACC-257 > 100 µM | HL-60 > 100 µM | A549 > 100 µM | MOLT-4 > 100 µM | RPMI-8226 > 100 µM | SN12C > 100 µM | EKVX > 100 µM | HOP-62 > 100 µM | A498 > 100 µM | CCRF-CEM > 100 µM

COc1ccc(C2CC(C)=Nc3c(O)nc(S)nc3N2)cc1 (centres undefined)
inactive: SR 25.6 µM | TK-10 20.8 µM | HCC 2998 16.7 µM | HOP-92 > 100 µM | SW-620 5.27 µM | HCT-116 16.5 µM | KM12 17.4 µM | NCI-H522 16.3 µM | UACC-257 16.8 µM | HL-60 17.7 µM | A549 16.9 µM | MOLT-4 23.1 µM | RPMI-8226 22.3 µM | SN12C 19.4 µM | EKVX 22.1 µM | HOP-62 25.4 µM | A498 19.2 µM | CCRF-CEM 24.2 µM

O=C1C(c2ccccc2)=C(c2ccccc2)C(c2ccc(-c3ccc(C4=C(c5ccccc5)C(=O)C(c5ccccc5)=C4c4ccccc4)cc3)cc2)=C1c1ccccc1
inactive: SR > 100 µM | TK-10 > 100 µM | HOP-92 > 100 µM | SW-620 > 100 µM | HCT-116 > 100 µM | KM12 > 100 µM | NCI-H522 > 100 µM | UACC-257 > 100 µM | HL-60 > 100 µM | A549 > 100 µM | MOLT-4 77.8 µM | RPMI-8226 46.9 µM | SN12C > 100 µM | EKVX > 100 µM | HOP-62 > 100 µM | A498 > 100 µM | CCRF-CEM > 100 µM

O=C1CC2CC=C[C@H]3c4cc5c(cc4C(=O)N1C23)OCO5 (some centres undefined)
inactive: TK-10 > 50 µM | HCC 2998 > 50 µM | SW-620 > 50 µM | HCT-116 > 50 µM | KM12 > 50 µM | NCI-H522 > 50 µM | UACC-257 > 50 µM | HL-60 > 50 µM | A549 > 50 µM | MOLT-4 > 50 µM | RPMI-8226 > 50 µM | SN12C > 50 µM | EKVX > 50 µM | HOP-62 > 50 µM | CCRF-CEM > 50 µM

O=C(Nc1ccccc1-c1n[nH]c(S)nc1=O)C(F)(F)F
inactive: SR > 100 µM | TK-10 > 100 µM | HCC 2998 > 100 µM | HOP-92 > 100 µM | SW-620 > 100 µM | HCT-116 > 100 µM | KM12 > 100 µM | NCI-H522 64.3 µM | A549 > 100 µM | MOLT-4 > 100 µM | SN12C > 100 µM | EKVX > 100 µM | HOP-62 > 100 µM | CCRF-CEM > 100 µM

Cc1ccc(NC(=O)SCCC(=O)O)cc1
inactive: SR > 100 µM | TK-10 > 100 µM | HCC 2998 > 100 µM | SW-620 > 100 µM | HCT-116 > 100 µM | KM12 > 100 µM | NCI-H522 > 100 µM | UACC-257 > 100 µM | HL-60 > 100 µM | A549 > 100 µM | MOLT-4 > 100 µM | RPMI-8226 > 100 µM | SN12C > 100 µM | EKVX > 100 µM | HOP-62 > 100 µM | A498 > 100 µM | CCRF-CEM > 100 µM

COC[C@@H]1[C@H]2OC(C)(C)O[C@H]2C(=O)N1C(=O)c1ccc(OC)cc1
inactive: SR > 100 µM | TK-10 > 100 µM | HCC 2998 > 100 µM | HOP-92 > 100 µM | SW-620 > 100 µM | HCT-116 > 100 µM | KM12 > 100 µM | NCI-H522 > 71.8 µM | UACC-257 > 100 µM | HL-60 > 100 µM | A549 > 100 µM | MOLT-4 > 100 µM | RPMI-8226 > 100 µM | SN12C > 100 µM | EKVX > 100 µM | HOP-62 > 100 µM | A498 > 100 µM | CCRF-CEM > 100 µM

O=c1c2ccccc2nc(-c2cccc(Cl)c2)n1NC1OC(CO)C(O)C(O)C1O (centres undefined)
inactive: TK-10 > 100 µM | HCC 2998 > 100 µM | HOP-92 > 100 µM | SW-620 > 100 µM | HCT-116 > 100 µM | KM12 > 100 µM | NCI-H522 > 100 µM | UACC-257 > 100 µM | HL-60 > 100 µM | A549 > 100 µM | MOLT-4 > 100 µM | RPMI-8226 > 100 µM | SN12C > 100 µM | EKVX > 100 µM | HOP-62 > 100 µM | A498 > 100 µM | CCRF-CEM 73.3 µM

O=c1[nH]c(=O)n(C2CC(O)C(CO)O2)cc1C#Cc1ccc(C(F)(F)F)cc1 (centres undefined)
inactive: SR > 100 µM | TK-10 > 100 µM | HCC 2998 > 100 µM | HOP-92 23.9 µM | SW-620 > 100 µM | HCT-116 > 100 µM | KM12 > 100 µM | NCI-H522 > 100 µM | UACC-257 > 100 µM | HL-60 > 100 µM | A549 > 100 µM | MOLT-4 > 100 µM | RPMI-8226 > 100 µM | SN12C > 100 µM | EKVX 63.2 µM | HOP-62 > 100 µM | CCRF-CEM > 100 µM

COc1ccccc1NS(=O)(=O)c1cc(C(C)(C)C)ccc1OCCOc1ccc(C(C)(C)C)cc1S(=O)(=O)Nc1ccccc1OC
inactive: TK-10 > 100 µM | HCC 2998 > 100 µM | HOP-92 > 100 µM | SW-620 > 100 µM | HCT-116 > 100 µM | KM12 45.4 µM | UACC-257 > 100 µM | HL-60 > 100 µM | A549 > 100 µM | MOLT-4 > 100 µM | RPMI-8226 > 100 µM | SN12C > 100 µM | EKVX > 100 µM | HOP-62 > 100 µM | A498 > 100 µM | CCRF-CEM > 100 µM

O=C(Nc1ccn(CCOC(=O)c2ccccc2)c(=O)n1)c1ccccc1
inactive: SR > 100 µM | TK-10 > 100 µM | HOP-92 > 100 µM | SW-620 > 100 µM | HCT-116 > 100 µM | KM12 > 100 µM | NCI-H522 > 100 µM | UACC-257 > 100 µM | HL-60 > 100 µM | A549 > 100 µM | RPMI-8226 > 100 µM | SN12C > 100 µM | EKVX > 100 µM | HOP-62 > 100 µM | A498 > 100 µM | CCRF-CEM > 100 µM

O=C1C=C(Nc2ccc(Cl)cc2C(=O)c2ccccc2)c2ccccc2C1=O
inactive: TK-10 > 100 µM | HCC 2998 > 100 µM | SW-620 > 100 µM | HCT-116 > 100 µM | KM12 > 100 µM | NCI-H522 > 100 µM | UACC-257 > 100 µM | HL-60 > 100 µM | A549 > 100 µM | MOLT-4 > 100 µM | SN12C > 100 µM | EKVX > 100 µM | HOP-62 > 100 µM | A498 > 100 µM | CCRF-CEM > 100 µM

Cc1cccc(NC(=O)C(=O)Cc2nc3ccccc3nc2O)c1C
inactive: SR > 100 µM | TK-10 > 100 µM | HCC 2998 > 100 µM | HOP-92 > 100 µM | SW-620 > 100 µM | HCT-116 > 100 µM | KM12 > 100 µM | NCI-H522 > 100 µM | UACC-257 > 100 µM | HL-60 > 100 µM | A549 > 100 µM | SN12C > 100 µM | EKVX > 100 µM | HOP-62 > 100 µM | A498 > 100 µM | CCRF-CEM > 100 µM

C[C@]12CCC(=O)C=C1CC[C@@H]1C2CC[C@]2(C)Nc3[nH]ncc3CC12 (some centres undefined)
inactive: TK-10 > 100 µM | HCC 2998 > 100 µM | SW-620 > 100 µM | HCT-116 > 100 µM | KM12 > 100 µM | UACC-257 > 100 µM | HL-60 > 100 µM | A549 > 100 µM | MOLT-4 > 100 µM | RPMI-8226 > 100 µM | EKVX 77.4 µM | HOP-62 > 100 µM | A498 > 100 µM | CCRF-CEM > 100 µM
